Columns and labels:
[1] = system: AVEFA; test: Post-emergence herbicidal action against AVEFA; type: in vivo, Avena fatua; conditions: 20 g/ha, visual assessment about 3 weeks after treatment, 100% = plants have died, 0% = like control plants
Procedure, shortened: (§1)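 Spray, one-leaf stage: WP or EC compound in water, 600–800 l/ha, 0.2% wetting agent. Plants held about 3 weeks in the greenhouse, then visually rated in percent of kill compared with untreated controls.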

[2] = system: ECHCG; test: Pre-emergence herbicidal action against ECHCG; type: in vivo, Echinochloa crus-galli; conditions: 80 g/ha
Procedure, shortened: (§2)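 Pre-emergence soil-surface spray of formulated compound (WP or EC; 600 to 800 l/ha; 0.2% wetting agent) over seeds sown in sandy loam. After 3 weeks under greenhouse conditions, damage is estimated visually in percent against untreated plants.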

[3] = system: VIOTR; test: Pre-emergence herbicidal action against VIOTR; type: in vivo, Viola tricolor
Procedure, shortened: as §2

[4] = system: ALOMY; test: Pre-emergence herbicidal action against ALOMY; type: in vivo, Alopecurus myosuroides; conditions: 80 g/ha, pre-emergence, scored visually after 3 weeks vs untreated controls (100% = plants have died, 0% = like control plants)
Procedure, shortened: as §2

[5] = system: ABUTH; test: Post-emergence herbicidal action against ABUTH; type: in vivo, Abutilon theophrasti; conditions: visual assessment about 3 weeks after treatment vs untreated controls
Procedure, shortened: as §1

[6] = system: PHBPU; test: Post-emergence herbicidal action against PHBPU; type: in vivo, Pharbitis purpurea
Procedure, shortened: as §1

[7] = system: AVEFA; test: Pre-emergence herbicidal action against AVEFA; type: in vivo, Avena fatua; conditions: 80 g/ha, pre-emergence
Procedure, shortened: as §2

[8] = system: STEME; test: Post-emergence herbicidal action against STEME; type: in vivo, Stellaria media
Procedure: Seeds of monocotyledonous and dicotyledonous weed and crop plants are laid out in sandy loam soil in wood-fiber pots, covered with soil and cultivated in a greenhouse under good growth conditions. 2 to 3 weeks after sowing, the test plants are treated at the one-leaf stage. The compounds of the invention, formulated in the form of wettable powders (WP) or as emulsion concentrates (EC), are then sprayed onto the green parts of the plants in the form of an aqueous suspension or emulsion at a water application rate equivalent to 600 to 800 l/ha, with addition of 0.2% wetting agent. After the test plants have been left to stand in the greenhouse under optimal growth conditions for about 3 weeks, the action of the preparations is assessed visually in comparison to untreated controls (herbicidal action in percent (%): 100% activity=the plants have died, 0% activity=like control plants). […] The tables below illustrate, in an illustrative manner, the post-emergence herbicidal action of the compounds of the invention, the herbicidal activity being stated in percent.

[9] = system: SETVI; test: Pre-emergence herbicidal action against SETVI; type: in vivo, Setaria viridis; conditions: dosage 80 g/ha
Procedure, shortened: as §2

[10] = system: MATIN; test: Post-emergence herbicidal action against MATIN; type: in vivo, Matricaria inodora
Procedure, shortened: as §1

[11] = system: MATIN; test: Pre-emergence herbicidal action against MATIN; type: in vivo, Matricaria inodora
Procedure, shortened: as §2

[12] = system: POLCO; test: Pre-emergence herbicidal action against POLCO; type: in vivo, Polygonum convolvulus; conditions: dosage 80 g/ha
Procedure, shortened: as §2

[13] = system: AMARE; test: Post-emergence herbicidal action against AMARE; type: in vivo, Amaranthus retroflexus; conditions: 20 g/ha, visual assessment about 3 weeks after treatment, 100% = plants have died, 0% = like control plants
Procedure, shortened: as §1

[14] = system: AMARE; test: Pre-emergence herbicidal action against AMARE; type: in vivo, Amaranthus retroflexus
Procedure, shortened: as §2

[15] = system: STEME; test: Pre-emergence herbicidal action against STEME; type: in vivo, Stellaria media
Procedure, shortened: as §2

[16] = system: ABUTH; test: Pre-emergence herbicidal action against ABUTH; type: in vivo, Abutilon theophrasti; conditions: for Pre-emergence action against ABUTH (herbicidal activity): 80 g/ha, scored visually after 3 weeks vs untreated controls (100% = plants have died, 0% = like control plants); for Pre-emergence action against ABUTH (herbicidal activity in percent): dosage 20 g/ha, scored visually after 3 weeks vs untreated controls, 100% = plants have died, 0% = like control plants
Procedure, shortened: as §2

[17] = system: DIGSA; test: Pre-emergence herbicidal action against DIGSA; type: in vivo, Digitaria sanguinalis
Procedure, shortened: as §2

[18] = system: VIOTR; test: Post-emergence herbicidal action against VIOTR; type: in vivo, Viola tricolor
Procedure, shortened: as §1

[19] = system: PHBPU; test: Pre-emergence herbicidal action against PHBPU; type: in vivo, Pharbitis purpurea; conditions: dosage 80 g/ha
Procedure, shortened: as §2

[20] = system: SETVI; test: Post-emergence herbicidal action against SETVI; type: in vivo, Setaria viridis; conditions: dosage 20 g/ha
Procedure, shortened: as §1

[21] = system: ECHCG; test: Post-emergence herbicidal action against ECHCG; type: in vivo, Echinochloa crus-galli
Procedure, shortened: as §1

[22] = system: DIGSA; test: Post-emergence herbicidal action against DIGSA; type: in vivo, Digitaria sanguinalis
Procedure, shortened: as §1

[23] = system: VERPE; test: Pre-emergence herbicidal action against VERPE; type: in vivo, Veronica persica; conditions: dosage 80 g/ha
Procedure, shortened: as §2

[24] = system: VERPE; test: Post-emergence herbicidal action against VERPE; type: in vivo, Veronica persica; conditions: 20 g/ha
Procedure, shortened: as §1

[25] = 20 g/ha, scored visually after 3 weeks vs untreated controls, 100% = plants have died, 0% = like control plants
[26] = 80 g/ha, scored visually after 3 weeks vs untreated controls (100% = plants have died, 0% = like control plants)

| Compound | Post-emergence action at 20 g/ha against AVEFA in % [1] | Pre-emergence action against ECHCG in % [2] | Pre-emergence action against VIOTR in % ([3]; dosage 80 g/ha) | Post-emergence action against ABUTH in % ([5]; dosage 5 g/ha) | Post-emergence action against ABUTH in % ([5]; dosage 20 g/ha) | Post-emergence action against PHBPU in % ([6]; dosage 20 g/ha) | Pre-emergence action against AVEFA in % [7] | Post-emergence action against STEME in % ([8]; 20 g/ha) | Post-emergence action against STEME in % ([8]; dosage 5 g/ha) | Pre-emergence action against SETVI in % [9] | Post-emergence action against MATIN in % ([10]; dosage 5 g/ha) | Post-emergence action against MATIN in % ([10]; dosage 20 g/ha) | Pre-emergence action against MATIN in % ([11]; dosage 20 g/ha) | Pre-emergence action against MATIN in % ([11]; dosage 80 g/ha) | Pre-emergence action against AMARE in % [14, 25] | Pre-emergence action against AMARE in % [14, 26] | Pre-emergence action against STEME in % ([15]; dosage 20 g/ha) | Pre-emergence action against STEME in % ([15]; dosage 80 g/ha) | Pre-emergence action against ABUTH (herbicidal activity) [16] | Pre-emergence action against ABUTH (herbicidal activity in percent) [16] | also measured |
| --- | --- | --- | --- | --- | --- | --- | --- | --- | --- | --- | --- | --- | --- | --- | --- | --- | --- | --- | --- | --- | --- |
| CCCn1nnnc1NC(=O)c1ccc(C(F)(F)F)c(C(=O)NCC)c1Br [Example 3-208] | 80% | 80% | 100% | 90% | 90% | 90% | 100% | 90% | 80% | 100% | 90% | 90% | 100% | 100% | 100% | 100% | 90% | 100% | 100% | 100% | Pre-emergence action against ALOMY (herbicidal activity) [4]: 90%; Post-emergence action against PHBPU in % ([6]; dosage 5 g/ha): 80%; Pre-emergence action against POLCO in % [12]: 80%; Post-emergence action at 20 g/ha against AMARE in % [13]: 90%; Pre-emergence action against DIGSA in % ([17]; dosage 80 g/ha): 80%; Post-emergence action against VIOTR in % ([18]; 5 g/ha): 100%; Post-emergence action against VIOTR in % ([18]; 20 g/ha): 100% |
| CCCn1nnnc1NC(=O)c1ccc(C(F)(F)F)c(C(=O)NC2CC2)c1CC [Example 3-273] | 80% | 80% | 100% | 80% | 90% | 80% | 90% | 90% | 80% | 100% | 80% | 90% | 90% | 100% | 100% | 100% | 90% | 100% | 100% | 90% | Pre-emergence action against PHBPU in % [19]: 90%; Post-emergence action against SETVI in % [20]: 80%; Post-emergence action against ECHCG in % ([21]; dosage 5 g/ha): 80%; Post-emergence action against ECHCG in % ([21]; dosage 20 g/ha): 80%; Post-emergence action against DIGSA in % ([22]; 5 g/ha): 80%; Post-emergence action against DIGSA ([22]; 20 g/ha): 90%; Pre-emergence action against VIOTR in % ([3]; dosage 20 g/ha): 100%; Pre-emergence action against VERPE in % [23]: 100%; Post-emergence action against VERPE in % [24]: 80%; Pre-emergence action against DIGSA in % ([17]; dosage 20 g/ha): 90%; Pre-emergence action against DIGSA in % ([17]; dosage 80 g/ha): 100% |
